In ChEMBL document CHEMBL3988442, “University of Dundee, Small-Polar-MMV Screening Library” (2021):
Values joined by “and” are separate entries in the source; they are usually repeats but may differ in a detail not shown here. Equal entries are not always repeated.

Tests used:
[1] = Trypanosoma cruzi proteasome luciferase counter-screen; assay type: functional, N/A
Schistosoma mansoni = test: High throughput screening of compounds against Schistosoma mansoni motility; assay type: functional; set-up: dose or concentration left out as unconfirmed
Proteasome subunit beta = molecular target: T1, Proteasome subunit beta (Trypanosoma cruzi, UniProt O96673); test: Trypanosoma cruzi proteasome chymotrypsin-like activity (TcProtChymo) assay.; assay type: functional
T1 sequence (O96673 whole entry): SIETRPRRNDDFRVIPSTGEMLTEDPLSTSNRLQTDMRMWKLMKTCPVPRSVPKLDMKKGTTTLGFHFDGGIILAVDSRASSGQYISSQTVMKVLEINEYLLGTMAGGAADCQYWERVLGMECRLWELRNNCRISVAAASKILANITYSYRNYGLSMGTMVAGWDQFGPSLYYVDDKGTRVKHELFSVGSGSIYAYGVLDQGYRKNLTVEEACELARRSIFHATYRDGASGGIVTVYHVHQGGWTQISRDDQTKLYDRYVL

[2] = molecular target: T2, Arginase-2, mitochondrial (Homo sapiens, UniProt P78540); test: in vitro enzyme assay to detect the production of urea directly proportional to the activity of Arginase II; assay type: functional
T2 sequence (P78540 whole entry): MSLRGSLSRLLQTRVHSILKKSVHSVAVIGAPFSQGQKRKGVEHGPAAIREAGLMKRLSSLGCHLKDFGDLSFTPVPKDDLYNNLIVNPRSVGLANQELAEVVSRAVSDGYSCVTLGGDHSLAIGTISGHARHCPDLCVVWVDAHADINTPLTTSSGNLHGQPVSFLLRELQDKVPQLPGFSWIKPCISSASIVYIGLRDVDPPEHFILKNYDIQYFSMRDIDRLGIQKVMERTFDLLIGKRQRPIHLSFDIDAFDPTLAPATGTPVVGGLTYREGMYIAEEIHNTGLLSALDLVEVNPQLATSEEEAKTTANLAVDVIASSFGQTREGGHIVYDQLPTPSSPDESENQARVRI

Plasmodium falciparum = test: Plasmodium falciparum sporozoite viability assay; assay type: functional, organism-based; conditions: for IC50: Plasmodium falciparum
[3] = molecular target: Chromo domain-containing protein 1 (Saccharomyces cerevisiae (strain ATCC 204508 / S288c) (Baker's yeast), UniProt P32657); test: ScCHD-1 Enzyme Inhibition Assay; assay type: functional
Chromo domain-containing protein 1, sequence (P32657 whole entry, the tested form may be a part): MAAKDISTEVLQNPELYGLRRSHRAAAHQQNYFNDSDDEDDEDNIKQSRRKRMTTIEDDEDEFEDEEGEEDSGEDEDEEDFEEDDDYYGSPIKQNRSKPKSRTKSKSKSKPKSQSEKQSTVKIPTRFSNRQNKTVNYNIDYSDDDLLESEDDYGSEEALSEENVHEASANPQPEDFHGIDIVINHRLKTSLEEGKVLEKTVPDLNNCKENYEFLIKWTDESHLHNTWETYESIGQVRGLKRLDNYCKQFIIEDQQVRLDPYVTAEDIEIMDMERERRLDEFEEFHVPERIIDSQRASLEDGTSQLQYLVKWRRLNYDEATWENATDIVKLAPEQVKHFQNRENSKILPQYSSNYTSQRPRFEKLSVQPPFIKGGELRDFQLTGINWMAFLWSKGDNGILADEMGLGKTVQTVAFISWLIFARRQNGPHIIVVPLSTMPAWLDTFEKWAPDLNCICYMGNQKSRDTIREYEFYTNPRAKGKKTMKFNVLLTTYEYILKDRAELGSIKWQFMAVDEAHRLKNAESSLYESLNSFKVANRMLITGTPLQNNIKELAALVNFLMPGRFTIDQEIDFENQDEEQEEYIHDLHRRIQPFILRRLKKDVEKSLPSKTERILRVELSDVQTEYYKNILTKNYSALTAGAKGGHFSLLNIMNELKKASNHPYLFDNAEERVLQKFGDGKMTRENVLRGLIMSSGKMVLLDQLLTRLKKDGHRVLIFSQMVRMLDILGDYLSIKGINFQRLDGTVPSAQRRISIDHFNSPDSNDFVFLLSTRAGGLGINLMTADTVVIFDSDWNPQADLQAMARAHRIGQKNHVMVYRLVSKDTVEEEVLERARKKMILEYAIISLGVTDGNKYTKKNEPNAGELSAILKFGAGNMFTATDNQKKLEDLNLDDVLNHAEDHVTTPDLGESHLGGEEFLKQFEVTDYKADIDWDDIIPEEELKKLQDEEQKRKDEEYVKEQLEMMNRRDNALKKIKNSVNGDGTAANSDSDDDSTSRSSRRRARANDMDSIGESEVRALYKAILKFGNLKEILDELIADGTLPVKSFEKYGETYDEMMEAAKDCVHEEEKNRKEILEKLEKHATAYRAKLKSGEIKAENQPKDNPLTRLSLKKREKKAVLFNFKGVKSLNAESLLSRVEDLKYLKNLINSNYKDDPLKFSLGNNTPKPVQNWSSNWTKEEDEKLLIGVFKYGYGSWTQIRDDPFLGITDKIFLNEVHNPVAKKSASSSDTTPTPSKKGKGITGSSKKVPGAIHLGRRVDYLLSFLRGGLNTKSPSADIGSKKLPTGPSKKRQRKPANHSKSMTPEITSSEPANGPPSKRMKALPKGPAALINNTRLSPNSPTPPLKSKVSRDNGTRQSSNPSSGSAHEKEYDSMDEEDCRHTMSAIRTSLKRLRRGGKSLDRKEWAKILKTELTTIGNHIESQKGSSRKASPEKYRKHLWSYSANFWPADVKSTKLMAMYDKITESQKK

Histidine--tRNA ligase = molecular target: T3, Histidine--tRNA ligase (Leishmania infantum, UniProt A4I591); test: Leishmania infantum Histidine tRNA synthetase (LdHisRS); assay type: functional
T3 sequence (A4I591 whole entry): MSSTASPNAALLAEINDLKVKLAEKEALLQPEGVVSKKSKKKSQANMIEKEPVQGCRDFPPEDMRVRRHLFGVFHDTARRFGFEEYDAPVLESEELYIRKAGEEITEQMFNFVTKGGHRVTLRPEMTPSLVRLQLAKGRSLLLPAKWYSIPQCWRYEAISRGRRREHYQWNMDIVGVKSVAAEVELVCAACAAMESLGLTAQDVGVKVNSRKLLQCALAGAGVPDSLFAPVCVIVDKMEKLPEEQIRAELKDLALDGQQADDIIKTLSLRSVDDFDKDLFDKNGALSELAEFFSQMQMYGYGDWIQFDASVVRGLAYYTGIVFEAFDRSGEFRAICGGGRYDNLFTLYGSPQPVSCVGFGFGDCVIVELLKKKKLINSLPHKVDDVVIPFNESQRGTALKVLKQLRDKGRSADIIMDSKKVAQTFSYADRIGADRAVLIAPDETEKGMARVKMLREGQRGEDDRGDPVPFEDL

[4] = molecular target: T4, Coenzyme A biosynthesis bifunctional protein CoaBC (Mycobacterium tuberculosis (strain ATCC 25618 / H37Rv), UniProt P9WNZ1); test: Biomol Green assay for MtCoaBC inhibitor, OD650 read; assay type: functional
T4 sequence (P9WNZ1 whole entry): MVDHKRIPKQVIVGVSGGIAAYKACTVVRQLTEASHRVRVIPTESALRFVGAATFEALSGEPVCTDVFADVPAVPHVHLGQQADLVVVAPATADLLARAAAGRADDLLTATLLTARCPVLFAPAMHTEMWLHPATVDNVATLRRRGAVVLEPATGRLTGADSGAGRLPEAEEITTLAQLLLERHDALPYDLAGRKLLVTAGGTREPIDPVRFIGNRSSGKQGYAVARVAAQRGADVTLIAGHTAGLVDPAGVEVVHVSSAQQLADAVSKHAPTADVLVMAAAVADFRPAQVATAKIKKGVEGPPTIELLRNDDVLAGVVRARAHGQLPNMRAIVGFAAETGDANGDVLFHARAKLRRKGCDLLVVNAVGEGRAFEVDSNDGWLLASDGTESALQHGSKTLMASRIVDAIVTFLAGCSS

[5] = molecular target: T5, Ubiquitin-activating enzyme e1, putative (Leishmania donovani (strain BPK282A1), UniProt E9BSI1); test: Leishmania donovani Ubiquitin Activating Enzyme (LdE1); assay type: functional
T5 sequence (E9BSI1 whole entry): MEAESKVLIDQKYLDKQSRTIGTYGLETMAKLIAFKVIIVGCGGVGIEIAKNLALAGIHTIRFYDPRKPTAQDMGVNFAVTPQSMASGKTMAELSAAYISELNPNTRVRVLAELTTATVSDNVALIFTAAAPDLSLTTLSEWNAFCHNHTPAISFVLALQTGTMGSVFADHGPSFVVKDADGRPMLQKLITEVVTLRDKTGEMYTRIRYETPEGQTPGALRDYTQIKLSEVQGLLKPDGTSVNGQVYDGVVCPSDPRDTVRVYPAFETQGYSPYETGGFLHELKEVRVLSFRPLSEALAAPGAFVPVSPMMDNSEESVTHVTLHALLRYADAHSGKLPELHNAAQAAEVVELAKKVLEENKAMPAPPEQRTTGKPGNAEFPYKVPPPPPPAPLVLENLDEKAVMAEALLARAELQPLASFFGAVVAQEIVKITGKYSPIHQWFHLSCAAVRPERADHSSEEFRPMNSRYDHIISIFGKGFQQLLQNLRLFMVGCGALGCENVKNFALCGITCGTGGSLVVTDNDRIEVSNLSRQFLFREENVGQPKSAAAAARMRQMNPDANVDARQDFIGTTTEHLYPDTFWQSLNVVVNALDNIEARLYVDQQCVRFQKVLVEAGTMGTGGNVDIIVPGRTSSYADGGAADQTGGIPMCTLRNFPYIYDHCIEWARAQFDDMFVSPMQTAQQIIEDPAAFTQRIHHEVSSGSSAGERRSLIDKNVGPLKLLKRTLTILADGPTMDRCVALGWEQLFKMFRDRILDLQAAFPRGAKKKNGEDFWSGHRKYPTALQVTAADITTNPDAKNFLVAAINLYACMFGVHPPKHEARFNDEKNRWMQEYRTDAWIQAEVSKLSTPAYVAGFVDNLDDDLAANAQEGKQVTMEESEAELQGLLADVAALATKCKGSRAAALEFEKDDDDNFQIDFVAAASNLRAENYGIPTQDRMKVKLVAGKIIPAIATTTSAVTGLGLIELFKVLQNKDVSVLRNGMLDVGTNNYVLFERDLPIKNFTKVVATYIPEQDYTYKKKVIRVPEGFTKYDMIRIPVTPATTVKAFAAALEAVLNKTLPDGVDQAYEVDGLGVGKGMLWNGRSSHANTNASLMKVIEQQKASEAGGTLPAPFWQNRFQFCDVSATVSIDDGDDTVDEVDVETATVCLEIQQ

Lysine--tRNA ligase = Lysine--tRNA ligase (Plasmodium falciparum (isolate 3D7), UniProt Q8IDJ8); test: Pf-KRS-1 (Lysyl-RNA Synthetase-1, KRS-1, cytosolic KRS) from Plasmodium falciparum. Inhibitor assay, 384 well plate, luminescence read.; assay type: functional
Lysine--tRNA ligase, sequence (Q8IDJ8 whole entry): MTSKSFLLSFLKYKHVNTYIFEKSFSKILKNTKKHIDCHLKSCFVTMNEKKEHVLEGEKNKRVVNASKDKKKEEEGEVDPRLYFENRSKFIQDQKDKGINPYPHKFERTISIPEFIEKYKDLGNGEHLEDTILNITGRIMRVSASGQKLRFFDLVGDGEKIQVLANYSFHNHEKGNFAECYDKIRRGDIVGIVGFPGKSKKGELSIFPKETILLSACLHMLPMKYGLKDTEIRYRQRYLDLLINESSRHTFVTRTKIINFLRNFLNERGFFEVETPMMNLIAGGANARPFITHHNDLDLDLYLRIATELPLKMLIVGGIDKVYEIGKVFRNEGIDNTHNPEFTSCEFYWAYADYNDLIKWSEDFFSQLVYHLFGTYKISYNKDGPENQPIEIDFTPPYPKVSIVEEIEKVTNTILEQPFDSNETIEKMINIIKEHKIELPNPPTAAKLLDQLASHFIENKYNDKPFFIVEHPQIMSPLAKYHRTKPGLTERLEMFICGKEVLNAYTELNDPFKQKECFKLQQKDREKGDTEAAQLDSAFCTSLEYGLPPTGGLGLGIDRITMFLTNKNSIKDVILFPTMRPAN

| Compound | pIC50 [1] | IC50 (Proteasome subunit beta) | IC50 [2] [µM] | further results |
| --- | --- | --- | --- | --- |
| CC(C1CC1)N(C)C(=O)c1cnc(-c2ccc3c(c2)OCO3)s1 (stereo not given) | 4.375 and 4.324 | 13.7 µM and 13.1 µM |  | Percent Effect (Schistosoma mansoni): 12.48% |
| Cc1cc(CNC(=O)N2CCN(c3nc(C)c(C)s3)CC2)no1 |  |  | > 100 |  |
| CN(Cc1ccccn1)C1COC2(CCN(Cc3cccnc3)CC2)C1 (stereo not given) |  |  | > 100 |  |
| COc1ccccc1CN1CCC2(CC1)CC(Oc1ccccn1)CO2 (stereo not given) |  |  | > 100 |  |
| Cc1nc(NCC2CC2)nc2c1COCC21CCN(C)C1 (stereo not given) |  |  | > 100 |  |
| Cc1ncsc1CCC(=O)N1CCCC[C@H](N(C)C)C1 |  |  | > 100 |  |
| COCc1noc(-c2ccc(N3CCCCC3CO)nc2)n1 (stereo not given) | 4.522 and 4.491 | 8.74 µM and 8.62 µM |  | pIC50 (Plasmodium falciparum): 7.545; IC50 (Plasmodium falciparum): 0.0293 µM |
| CSc1ccccc1C(C(=O)O)N1CCN(Cc2ccccn2)CC1 (stereo not given) |  |  | > 100 |  |
| Cc1[nH]ccc1C(=O)N1CCCC(c2nccn2Cc2cscn2)C1 (stereo not given) |  |  | > 100 |  |
| CN1CCCC1c1ccc(C(=O)N2CCc3ccccc3C2)s1 (stereo not given) | 4.715 and 4.643 | 10.3 µM and 8.37 µM |  | pIC50 (Plasmodium falciparum): 6.857; IC50 (Plasmodium falciparum): 0.121 µM |
| COc1cccc([C@@H]2CN(C(=O)c3ccc(C)cc3O)C[C@H]2C(=O)O)c1 |  |  | > 100 |  |
| COc1ccccc1Oc1ncccc1CNC(=O)C(C)N1CCCC1 (stereo not given) |  |  | > 100 | Percent Effect (Schistosoma mansoni): 13.35% |
| COc1ccc2c(c1)OCC(CNC(=O)c1ccncc1)C2 (stereo not given) |  |  | > 100 | IC50 [3]: > 29.5 µM |
| CN(CCO)C(=O)c1coc(CN2CCN(c3ccccc3F)CC2)n1 |  |  | > 100 | IC50 [3]: > 29.5 µM |
| CCC(C(=O)NC)N(c1cccc(C)c1)S(C)(=O)=O (stereo not given) |  |  | > 100 |  |
| Cc1ccc([C@@H]2CN(S(=O)(=O)N(C)C)C[C@H]2N(C)C)cc1 |  |  | > 100 |  |
| Cc1cnn(C2CN(CC(=O)NCc3ccccn3)C2)c1 | < 4 | 14.9 µM and 19.7 µM |  | IC50 (Histidine--tRNA ligase): > 100 µM; IC50 [4]: > 30.2 µM |
| Cc1ccc(N(C)C2CCN(C(=O)CCc3ccco3)CC2)nn1 | < 4 | 12.8 µM and 16.7 µM |  | IC50 (Histidine--tRNA ligase): 41.4 µM and 49.7 µM; IC50 [4]: > 30.2 µM |
| CC(C)c1n[nH]c(C(=O)Nc2cc[nH]n2)c1Br | 4.666 and 4.69 | 5.88 µM and 6.65 µM |  | pIC50 (Plasmodium falciparum): 7.564; IC50 (Plasmodium falciparum): 0.0186 µM |
| Cc1nc(C)c(C(=O)OCCNc2ncccc2C#N)s1 | 4.56 and 4.563 | 7.22 µM and 8.26 µM |  | IC50 [5]: > 100 µM |
| CC(O)CNCc1ccc(OCc2ccc3c(c2)OCCO3)cc1.Cl (stereo not given) | 4.507 and 4.501 | 9.3 µM and 9.77 µM |  | pIC50 (Plasmodium falciparum): 6.937; IC50 (Plasmodium falciparum): 0.0903 µM |
| CN(C)C(=O)[C@@H]1CCO[C@@H]2CCN(CCc3ccccc3)C[C@@H]21 |  |  | > 100 | IC50 (Lysine--tRNA ligase): > 50.1 µM |
| O=C(NCc1ccccn1)[C@]12COC[C@H]1CN(C1CCC1)C2 |  |  | > 100 |  |
| COCCN1C[C@@H]2CCCO[C@@H]2[C@H](N(C)Cc2ccco2)C1 |  |  | > 100 |  |
